Reference: publication PMC9783183, “Substrate Recognition Properties from an Intermediate Structural State of the UreA Transporter” (International Journal of Molecular Sciences, 2022)
Like-named read-outs stand apart in the source and are kept apart here.

Assays:
[1] = system: NC(N)=O; assay: cells, lysate or membranes; details: 37.0 °C
Description: [^14C]-urea uptake assays were performed in A. nidulans germinating conidiospores. Initial velocities were measured after 2 min of incubation at 37 °C with a [^14C]-urea concentration of 1.0 μΜ, and are expressed as % of the wt value, in pmoles min^−1/10^7 conidiospores. Apparent Km/i values were obtained directly by performing and analyzing [^14C]-urea uptakes (Prism 3.02: Graph Pad Software, Inc., San Diego, CA, USA), from IC50 values in the presence of various concentrations (0.5–3000 μM) of non-labelled substrates, as previously described [4, 16, 58]. […] The Ki values are then calculated from IC50 values, based on the equation: Ki = IC50/[1 + (S/Km)] […] Transport assays were carried out in at least three independent experiments, in triplicates for each concentration or time point. Background uptake values were corrected by subtracting values measured in the deleted mutants (UreAΔ). Standard deviation was <20%.

[2] = system: UreA W82F; details: cited from earlier work; for affinity relative to wt (in words): allele W82F vs wt, ref [16]
[3] = molecular target: T1, UreA wt (Aspergillus nidulans, UniProt Q5BGB2); assay: [14C]-urea uptake in germinating conidiospores, wt UreA; format: cell-based; details: allele wt; for Ki: inhibition of [14C]-urea uptake, Ki from IC50
T1 sequence (Q5BGB2 1-693): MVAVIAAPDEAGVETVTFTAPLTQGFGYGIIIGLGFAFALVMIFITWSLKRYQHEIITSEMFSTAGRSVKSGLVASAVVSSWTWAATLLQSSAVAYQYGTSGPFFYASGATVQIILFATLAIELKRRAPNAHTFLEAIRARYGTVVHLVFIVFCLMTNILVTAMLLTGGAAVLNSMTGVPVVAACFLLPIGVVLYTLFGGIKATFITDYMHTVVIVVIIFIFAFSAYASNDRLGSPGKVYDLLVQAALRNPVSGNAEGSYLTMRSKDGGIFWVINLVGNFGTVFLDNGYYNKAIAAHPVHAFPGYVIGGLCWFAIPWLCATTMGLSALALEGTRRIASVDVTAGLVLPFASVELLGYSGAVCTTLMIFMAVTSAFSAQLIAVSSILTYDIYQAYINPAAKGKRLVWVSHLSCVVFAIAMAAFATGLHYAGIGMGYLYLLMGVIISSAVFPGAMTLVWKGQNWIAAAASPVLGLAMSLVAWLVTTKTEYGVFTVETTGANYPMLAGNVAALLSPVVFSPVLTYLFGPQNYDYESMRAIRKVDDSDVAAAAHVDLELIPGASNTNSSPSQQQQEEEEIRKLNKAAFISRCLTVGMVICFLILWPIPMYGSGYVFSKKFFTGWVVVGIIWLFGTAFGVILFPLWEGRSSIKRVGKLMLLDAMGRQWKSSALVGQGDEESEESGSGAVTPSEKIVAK
Description: (§1) Radiolabelled [^14C]-urea (55.0 mCi mmol^−1) was purchased from Moravek Biochemicals, Brea, CA, USA. [^14C]-urea uptake assays were performed in A. nidulans germinating conidiospores. Initial velocities were measured after 2 min of incubation at 37 °C with a [^14C]-urea concentration of 1.0 μΜ, and are expressed as % of the wt value, in pmoles min^−1/10^7 conidiospores. Apparent Km/i values were obtained directly by performing and analyzing [^14C]-urea uptakes (Prism 3.02: Graph Pad Software, Inc., San Diego, CA, USA), from IC50 values in the presence of various concentrations (0.5–3000 μM) of non-labelled substrates, as previously described. […] The Ki values are then calculated from IC50 values, based on the equation: Ki = IC50/[1 + (S/Km)] […] Transport assays were carried out in at least three independent experiments, in triplicates for each concentration or time point. Background uptake values were corrected by subtracting values measured in the deleted mutants (UreAΔ).

[4] = molecular target: T2, UreA W84F (Aspergillus nidulans, UniProt Q5BGB2, W84F); assay: [14C]-urea uptake in germinating conidiospores, UreA W84F mutant
T2 sequence (Q5BGB2 1-693 W84F): T1 sequence (Q5BGB2 1-693)
Description: as §1

[5] = molecular target: T3, UreA W84A (Aspergillus nidulans, UniProt Q5BGB2, W84A); assay: [14C]-urea uptake in germinating conidiospores, UreA W84A mutant
T3 sequence (Q5BGB2 1-693 W84A): T1 sequence (Q5BGB2 1-693)
Description: as §1

[6] = molecular target: T4, UreA W82Y (Aspergillus nidulans, UniProt Q5BGB2, W82Y); assay: [14C]-urea uptake in germinating conidiospores, UreA W82Y mutant; details: for Vo (%) initial uptake rate: allele W82Y, % of wt, [14C]-urea 1.0 μM, 2 min, 37 °C
T4 sequence (Q5BGB2 1-693 W82Y): T1 sequence (Q5BGB2 1-693)
Description: as §1

[7] = molecular target: T5, UreA N279A (Aspergillus nidulans, UniProt Q5BGB2, N279A); assay: [14C]-urea uptake in germinating conidiospores, UreA N279A mutant
T5 sequence (Q5BGB2 1-693 N279A): T1 sequence (Q5BGB2 1-693)
Description: as §1

[8] = molecular target: T6, UreA W84Y (Aspergillus nidulans, UniProt Q5BGB2, W84Y); assay: [14C]-urea uptake in germinating conidiospores, UreA W84Y mutant
T6 sequence (Q5BGB2 1-693 W84Y): T1 sequence (Q5BGB2 1-693)
Description: as §1

[9] = molecular target: T7, UreA T282A (Aspergillus nidulans, UniProt Q5BGB2, T282A); assay: [14C]-urea uptake in germinating conidiospores, UreA T282A mutant; details: for Vo (%) initial uptake rate: allele T282A, % of wt, [14C]-urea 1.0 μM, 2 min, 37 °C
T7 sequence (Q5BGB2 1-693 T282A): T1 sequence (Q5BGB2 1-693)
Description: as §1

[10] = molecular target: T8, UreA N279Q (Aspergillus nidulans, UniProt Q5BGB2, N279Q); assay: [14C]-urea uptake in germinating conidiospores, UreA N279Q mutant; details: for Vo (%) initial uptake rate: allele N279Q, % of wt, [14C]-urea 1.0 μM, 2 min, 37 °C
T8 sequence (Q5BGB2 1-693 N279Q): T1 sequence (Q5BGB2 1-693)
Description: as §1

[11] = molecular target: T9, UreA T282S (Aspergillus nidulans, UniProt Q5BGB2, T282S); assay: [14C]-urea uptake in germinating conidiospores, UreA T282S mutant; details: for fold drop in affinity: allele T282S vs wt; for Vo (%) initial uptake rate: allele T282S, % of wt, [14C]-urea 1.0 μM, 2 min, 37 °C
T9 sequence (Q5BGB2 1-693 T282S): T1 sequence (Q5BGB2 1-693)
Description: as §1

Compound: UreA N279Q (Aspergillus nidulans FGSC A4; N279Q)
- Km ([1]; other: allele N279Q): 91 ± 6 µM

Compound: UreA W82Y (Aspergillus nidulans FGSC A4; W82Y)
- Km ([1]; other: allele W82Y): 42 ± 5 µM

Compound: N=C(N)N [guanidine]
- affinity relative to wt (in words) [2]: augmented

Compound: UreA T282A (Aspergillus nidulans FGSC A4; T282A)
- Km ([1]; other: allele T282A): 80 ± 27 µM

Compound: UreA W84Y (Aspergillus nidulans FGSC A4; W84Y)
- Km ([1]; other: allele W84Y): 159 ± 11 µM

Compound: UreA N279A (Aspergillus nidulans FGSC A4; N279A)
- Km ([1]; other: allele N279A): 30 ± 3 µM

Compound: NC(N)=O [Urea, urea]
- Vo (%) initial uptake rate ([3]; % of wt, [14C]-urea 1.0 μM, 2 min, 37 °C): 100%
- Vo (%) initial uptake rate ([4]; allele W84F, % of wt, [14C]-urea 1.0 μM, 2 min, 37 °C): 15 ± 2%
- Vo (%) initial uptake rate ([5]; allele W84A, % of wt, [14C]-urea 1.0 μM, 2 min, 37 °C): 20 ± 2%
- drop in urea affinity ([6]; allele W82Y vs wt): ≈ 50%
- Vo (%) initial uptake rate [6]: 25 ± 2%
- Vo (%) initial uptake rate ([6]; listed as urea): ≈ 25%
- Vo (%) initial uptake rate ([7]; allele N279A, % of wt, [14C]-urea 1.0 μM, 2 min, 37 °C): 100 ± 5%
- Vo (%) initial uptake rate ([8]; allele W84Y, % of wt, [14C]-urea 1.0 μM, 2 min, 37 °C): 46 ± 4%
- Km fold lower than that of the wt ([9]; allele T282A vs wt): 3 fold
- Vo (%) initial uptake rate [9]: 14 ± 2%
- Vo (%) initial uptake rate ([9]; listed as urea): 14%
- affinity fold lower than that of the wt ([10]; allele N279Q vs wt): 3.5 fold
- Vo (%) initial uptake rate [10]: 70 ± 3%
- Vo (%) initial uptake rate ([10]; listed as urea): ≈ 70%
- affinity relative to wt (in words) [2]: unchanged
- Vo (%) initial uptake rate ([2]; allele W82F, % of wt, ref Sanguinetti et al. (2014) [8]): 50 ± 8%
- Km ([2]; allele W82F, ref Sanguinetti et al. (2014) [8]): 23 ± 5 µM
- fold drop in affinity [11]: 5 fold
- Vo (%) initial uptake rate [11]: 65 ± 3%
- Vo (%) initial uptake rate ([11]; listed as urea): ≈ 65%

Compound: UreA W84A (Aspergillus nidulans FGSC A4; W84A)
- Km ([1]; other: allele W84A): 193 ± 12 µM

Compound: UreA T282S (Aspergillus nidulans FGSC A4; T282S)
- Km ([1]; other: allele T282S): 130 ± 22 µM

Compound: CC(N)=O [Acetamide, acetamide]
- Ki ([3]; read-out: Acetamide Ki): 237 ± 14 µM
- Ki [4]: 524 ± 42 µM
- Ki [5]: 489 ± 39 µM
- Ki [6]: 101 ± 16 µM
- Ki [7]: 51 ± 5 µM
- Ki fold lower as compared to the wt ([7]; allele N279A vs wt): ≈ 4.6 fold
- Ki [8]: > 1000 µM
- Ki [9]: 361 ± 85 µM
- fold decrease in affinity ([9]; allele T282A vs wt): 1.6 fold
- Ki [10]: 87 ± 9 µM
- Ki fold lower as compared to the wt ([10]; allele N279Q vs wt): ≈ 2.7 fold
- affinity relative to wt (in words) [2]: augmented
- Ki ([2]; allele W82F, ref Sanguinetti et al. (2014) [8], read-out: Acetamide Ki): 198 ± 12 µM
- Ki [11]: 290 ± 12 µM

Compound: NC(N)=S [Thiourea, 2-thiourea]
- Ki ([3]; read-out: Thiourea Ki): 528 ± 42 µM
- Ki [4]: > 2000 µM
- Ki [5]: > 2000 µM
- Ki [6]: > 1000 µM
- Ki [7]: > 1000 µM
- Ki [8]: > 2000 µM
- Ki [9]: > 1000 µM
- fold decrease in affinity ([9]; allele T282A vs wt): 2 fold
- Ki [10]: 813 ± 59 µM
- affinity fold lower than that of the wt ([10]; allele N279Q vs wt): 1.5 fold
- affinity relative to wt (in words) [2]: augmented
- Ki ([2]; allele W82F, ref Sanguinetti et al. (2014) [8], read-out: Thiourea Ki): 447 ± 24 µM
- Ki [11]: > 1000 µM
- fold drop in affinity [11]: > 2 fold

Compound: UreA W84F (Aspergillus nidulans FGSC A4; W84F)
- Km ([1]; other: allele W84F): 96 ± 13 µM
